Tests used:
[1] = Phase II metabolism assay, human cryopreserved hepatocytes, LC-MS/MS metabolite identification; assay type: in vitro ADME; details: butylidenephthalide 50 μM, 37° C., 6 hours
Text: (§1) It has been known that the medicine metabolic pathway within an organism's liver can be primarily divided into phase I and phase II metabolism. Phase I metabolism occurs mainly by the redox reaction or hydrolysis reaction of medicine, and phase II metabolism occurs mainly by […]. This example simulated the phase I and II metabolism of butylidenephthalide that occur within an organism's liver by respectively mixing butylidenephthalide with hepatic microsomes or cryopreserved hepatocytes in vitro, and the products in the reaction solution were analyzed by liquid chromatograph-tandem mass spectrometer (LC-MS/MS) to identify the metabolites and the metabolic profile. The experimental steps were as follows:
(§2) William's E medium containing 5×10^5 thawed human, rat or dog hepatocytes were respectively added into a 12-well culture dish, and the cells were cultured for 6 hours. Then, 0.5 mL of butylidenephthalide (50 μM) was added into the culture dish. After the cells were incubated at 37° C., 95% relative humidity and 5% CO2 for 6 hours, 2 mL of acetonitrile (100%) was added to terminate the reaction. The sample was collected, mixed adequately, and centrifuged at 45000 g, 4° C. for 10 minutes. The supernatant was then collected, dried, and analyzed by LC-MS/MS to identify the metabolites. […]

[2] = Phase I metabolism assay, dog hepatic microsomes, LC-MS/MS metabolite identification; assay type: in vitro ADME; details: butylidenephthalide 2 mM, dog hepatic microsomes 0.5 mg/mL, NADPH, 37° C., 60 minutes
Text: as §1
(§3) Butylidenephthalide (2 mM) was mixed respectively with K3PO4 buffer solution (100 mM, pH7.4) containing human, rats or dogs hepatic micrsomes (0.5 mg/mL). The mixture was maintained at 37° C. for 10 minutes, and then pre-warmed cofactors (NADPH (2 mM) and MgCl2 (3 mM)) were added thereto and the mixture was incubated at 37° C. for 60 minutes. Thereafter, 3-fold volume of acetonitrile containing 0.1% formic acid was added to the mixture to terminate the reaction. The mixture was centrifuged at 13000 rpm for 5 minutes, and the supernatant was then collected and analyzed by LC-MS/MS to identify the metabolites. […]

[3] = system: SOD1-G93A transgenic mice; assay: Survival of SOD1-G93A transgenic mice (amyotrophic lateral sclerosis model); assay type: in vivo, mouse; details: 60-day-old SOD1-G93A transgenic mice, oral, 500 mg/kg-body weight once daily; for Survival days: n = 8, 500 mg/kg
Text: It has been known that about 20% of amyotrophic lateral sclerosis patients were associated with mutations in the gene that encodes Cu/Zn superoxide dismutase enzyme (SOD1), and G93A was the major mutation site. […] A SOD1-G93A transgenic mouse will show the symptoms of amyotrophic lateral sclerosis within about 90±5 days postnatal and will die within about 125±5 days postnatal.
This example used the above SOD1-G93A transgenic mice as the object of study to perform in vivo analysis. SOD1-G93A transgenic mice (60-day-old) were treated with butylidenephthalide (purchased from ECHO Chemical) by oral administration, with a dosage of 500 mg/kg-body weight once daily, wherein the unit “mg/kg-body weight” means the dosage required per kg-body weight.

[4] = Phase II metabolism assay, rat cryopreserved hepatocytes, LC-MS/MS metabolite identification; assay type: in vitro ADME; details: butylidenephthalide 50 μM, 37° C., 6 hours
Text: as §1, §2

NSCs (neural stem cells) = assay: Cellular experiment: H2O2-stimulated autophagy of NSCs, LC3-II by Western blotting; assay type: cell-based, mouse; details: 10 μg/mL butylidenephthalide for 12 hours, then H2O2 (2500 μM/mL) for 12 hours
Procedure: Cellular experiment was performed by using NSCs (neural stem cells) which can differentiate into mouse motor neurons to imitate mouse motor neurons.
NSCs were incubated in a culture dish (10 cm in diameter). The cells were washed with PBS when grown to a density of 60% confluence, and treated with different concentrations of butylidenephthalide for 12 hours. The cells were then treated with H2O2 (2500 μM/mL) for 12 hours to stimulate the autophagy of cells. Then, the cells were collected and the proteins were extracted, and the protein expression level of LC3-II in NSC was analyzed by SDS-PAGE and Western blotting.

spinal motor neurons = assay: Histochemical staining (hematoxylin and eosin): count of spinal motor neurons of SOD1-G93A transgenic mice; assay type: in vivo, mouse; details: spinal cord, mice sacrificed in extremis, oral 500 mg/kg-body weight once daily
Procedure: SOD1-G93A transgenic mice (60-day-old) were treated with butylidenephthalide by oral administration, with a dosage of 500 mg/kg-body weight once daily. The SOD1-G93A transgenic mice in the experimental group were sacrificed in extremis, and the spinal cord was collected to perform hematoxylin and eosin stain. The number of motor neurons in the spinal cord was observed and counted by using a microscope, and the data was compared with that of the untreated control group.

[5] = Phase II metabolism assay, dog cryopreserved hepatocytes, LC-MS/MS metabolite identification; assay type: in vitro ADME; details: butylidenephthalide 50 μM, 37° C., 6 hours
Text: as §1, §2

[6] = system: SOD1-G93A transgenic mice; assay: BBB Locomotor Rating Scale of hind limbs of SOD1-G93A transgenic mice; assay type: in vivo, mouse; details: oral, 500 mg/kg-body weight once daily from 60 days of age; normal mice 21 points
Procedure: SOD1-G93A transgenic mice (60-day-old) were treated with butylidenephthalide by oral administration, with a dosage of 500 mg/kg-body weight once daily. After the mice were treated for 30 days, the hind limbs of the mice were examined by BBB scale (Basso, Beattie, and Bresnahan (BBB) Locomotor Rating Scale). The BBB scale of the hind limbs of normal mice was 21 points, while the BBB scale of disease-progressed SOD1-G93A transgenic mice decreased from 21 to 0 points, wherein the lower scale represents a more severe action disorder in the mice. BBB scale is used to record the drug efficiency.

LC3-II = assay: Western blotting of autophagy biomarker LC3-II in spinal cord of SOD1-G93A transgenic mice; assay type: in vivo, mouse; details: compared with untreated control; oral 500 mg/kg-body weight once daily, sacrificed in extremis; β-actin internal control
Procedure: SOD1-G93A transgenic mice (60-day-old) were treated with butylidenephthalide by oral administration, with a dosage of 500 mg/kg-body weight once daily. It has been indicated by research that SOD1-G93A transgenic mice lost its spinal motor neurons because of the significant increase of autophagy during the last phase of amyotrophic lateral sclerosis (which can be seen in In vivo optical imaging of motor neuron autophagy in a mouse model of amyotrophic lateral sclerosis. Autophagy 7:9, 1-8; September 2011, which is entirely incorporated hereinto by reference). Therefore, in this example, the SOD1-G93A transgenic mice in experimental group were sacrificed in extremis to collect their spinal cord, and the proteins were extracted from the spinal cord to perform Western blotting and to analyze the protein biomarker of autophagy, LC3-II, which was used to determine whether autophagy occurred in the lumbar spinal motor neurons of the mice, wherein β-actin was used as an internal control.

[7] = Phase I metabolism assay, human hepatic microsomes, LC-MS/MS metabolite identification; assay type: in vitro ADME; details: butylidenephthalide 2 mM, human hepatic microsomes 0.5 mg/mL, NADPH, 37° C., 60 minutes
Text: as §1, §3

[8] = Phase I metabolism assay, rat hepatic microsomes, LC-MS/MS metabolite identification; assay type: in vitro ADME; details: butylidenephthalide 2 mM, rat hepatic microsomes 0.5 mg/mL, NADPH, 37° C., 60 minutes
Text: as §1, §3

**Q.** With CCCC=C1OC(=O)c2ccccc21 [butylidenephthalide] as the compound, how does the “metabolites produced (phase II metabolism)” value [1] read?
**A.** compounds (11) to (14)

**Q.** What about the “metabolites produced (phase I metabolism)” value [2] of the same compound?
**A.** compounds (2) to (9)

**Q.** And the “life lengthened as compared to untreated control group” value [3]?
**A.** about 22±2 days

**Q.** And the Survival days [3]?
**A.** about 149±4.39 days

**Q.** And the Survival days ([3]; listed as n-BP)?
**A.** 149 ± 4.39 days

**Q.** What about the “metabolites produced (phase II metabolism)” value [4] of the same compound?
**A.** compounds (11) to (14)

**Q.** And the “protein expression level of LC3-II in NSC” value (NSCs (neural stem cells))?
**A.** decrease the protein expression level of LC3-II

**Q.** And the “The number of motor neurons” value (spinal motor neurons; control group 3 ± 3.1)?
**A.** 24

**Q.** What about the “The number of motor neurons” value (spinal motor neurons; control group 3 ± 3.1, listed as n-BP) of the same compound?
**A.** 24 ± 4.2

**Q.** And the “metabolites produced (phase II metabolism)” value [5]?
**A.** compounds (11) to (14)

**Q.** What about the “BBB scale of the hind limbs, after 135 days (decreased rapidly)” value [6] of the same compound?
**A.** 16 to 0 points

**Q.** And the “BBB scale of the hind limbs, from 125 to 135 days (decreased slowly)” value [6]?
**A.** 21 to 16 points

**Q.** What about the “protein expression level of LC3-II and pLC3-II in cervical, thoracic and lumbar spinal cord” value (LC3-II) of the same compound?
**A.** significantly decreased

**Q.** What about the “metabolites produced (phase I metabolism)” value [7] of the same compound?
**A.** compounds (2) to (9)

**Q.** And the “metabolites produced (phase I metabolism)” value [8]?
**A.** compounds (2) to (9)
